Laboratory results: EP0267319A1, “Anti-spasmodic agents having a ring in the main chain” (United Pharmaceuticals, Inc., priority 1986, dated 1988)
Structures can show the parent of a compound that is named as a salt.

Test system: rabbit urinary bladder strip
Test: relaxant effect on bethanechol-contracted rabbit urinary bladder strips (organ bath)
Type: cell-based
Details: for Decrease in force of contraction of rabbit bladder strip / Increase in length of rabbit bladder strip: strips pre-contracted with bethanechol 150 µM; for Increase in length of rabbit bladder strip: cumulative dosing, read 5 minutes after addition; for % background relaxation: term not explained
Method: The pharmological actions of one anti-spasmodic compound was studied in a rabbit urinary bladder strip preparation. In general, longitudinal strips were prepared from the base of freshly isolated rabbit bladders and were then suspended under near-physiological conditions in tissue baths. The strips were attached to force transducers and both contractile and relaxant activity was measured. To measure the relaxant effects on the anti-spasmodic compounds on previously-contracted bladder strips, the strips were initially exposed to the muscarinic receptor agonist bethanechol and allowed to reach a steady level of contractile activity for 20 minutes. At this point cumulative dose-responses to the compound was recorded. The rabbit abdomens were opened through a vertical midline incision. The bladder and urethra were dissected free of all surrounding tissues, removed and placed in aerated (95% O₂:5% CO₂) Kreb's-bicarbonate buffer (pH:7.4) of the following composition ([…]):KCl 4.6, CaCl₂·2H₂O 2.5, KH₂PO₄ 1.2, MgSO₄·7H₂O 1.2, NaCl 118.2, NaHCO₃ 24.8, and glucose 10.0. Longitudinal muscle strips were prepared from the bladder base (approximately 6 mm x 4 mm) and suspended in an organ bath containing Kreb's buffer (37°C) which was continuously aerated with O₂:CO₂ (95%:5%). Tissues were allowed to equilibrate to a tension of 2 gm for sixty minutes during which time buffer was replaced at 20 minute intervals. The contractile and relaxant responses of the muscle strips were measured isometrically with a Statham UC3 force-displacement transducer and recorded on an Electronics for Medicine DR8 oscillographic recorder. Bethanechol was employed as the representative cholinergic agonist and, following equilibration, was added to the baths for a final concentration of 150 µM. The tissues were allowed 20 minutes to achieve a maintained level of contraction in response to bethanechol and, at this point, cumulative dose-response measurements for one anti-spasmodic compound were started at concentrations ranging from 10⁻⁸ M to 10⁻⁴M. Solutions were added in volumes up to 100 µl and were prepared fresh each day by dissolving them in distilled:deionzed water. Responses were measured 5 minutes following any particular cumulative addition and were expressed as a percentage of maximal relaxation (e.g. maximal relaxation is the baseline or pre-bethanechol level of muscle tone).
Dose responses, measured from the standard bethanechol-contracted rabbit bladder strips, at various concentrations of 4-t-butyl-benzoyl-thio-S-(2-diethylaminoethyl)-ester·HCl [drawing 12] are presented in Table I: […]

In the case of `CCN(CC)CCSC(=O)c1ccc(C(C)(C)C)cc1` [4-t-butyl-benzoyl-thio-S-(2-diethylaminoethyl)-ester·HCl], the “Decrease in force of contraction of rabbit bladder strip” value (shortened to “Decrease in force”) (10^-4 moles/liter) is reported as 0.67 gm, the “Increase in length of rabbit bladder strip” value (“Increase in length” for short) (10^-4 moles/liter) is reported as 3.2 cm and the “% background relaxation” value (10^-4 moles/liter) is reported as 31.8%. The “Decrease in force” value (10^-5 moles/liter) was 0.27 gm, the “Increase in length” value (10^-5 moles/liter) was 1.3 cm and the “% background relaxation” value (10^-5 moles/liter) was 9.5%. For the same compound, the “Decrease in force” value (10^-6 moles/liter) was 0.08 gm, the “Increase in length” value (10^-6 moles/liter) was 0.4 cm and the “% background relaxation” value (10^-6 moles/liter) was 0.0%. For the same compound, the “Decrease in force” value (10^-7 moles/liter) was 0.04 gm, the “Increase in length” value (10^-7 moles/liter) was 0.2 cm and the “% background relaxation” value (10^-7 moles/liter) was 0.0%. For the same compound, the “Decrease in force” value (10^-8 moles/liter) was 0.02 gm, the “Increase in length” value (10^-8 moles/liter) was 0.1 cm and the “% background relaxation” value (10^-8 moles/liter) was 0.0%. The inhibition at 100 µM (Oryctolagus cuniculus, 5 min, 10^-4 moles/liter, maximal relaxation = pre-bethanechol level of muscle tone, read-out: % of maximum relaxation) was 40.5%, the inhibition at 10 µM (Oryctolagus cuniculus, 5 min, 10^-5 moles/liter, maximal relaxation = pre-bethanechol level of muscle tone, read-out: % of maximum relaxation) was 16.5% and the inhibition at 1 µM (Oryctolagus cuniculus, 5 min, 10^-6 moles/liter, maximal relaxation = pre-bethanechol level of muscle tone, read-out: % of maximum relaxation) was 5.2%. For the same compound, the inhibition at 0.1 µM (Oryctolagus cuniculus, 5 min, 10^-7 moles/liter, maximal relaxation = pre-bethanechol level of muscle tone, read-out: % of maximum relaxation) was 2.6% and the inhibition at 0.01 µM (Oryctolagus cuniculus, 5 min, 10^-8 moles/liter, maximal relaxation = pre-bethanechol level of muscle tone, read-out: % of maximum relaxation) was 1.3%.
